The values below come from US20260337245A1, “POLYPEPTIDE OR ANALOG THEREOF AND USE THEREOF” (Shenzhen Bay Laboratory, priority 2024, published 2026).

The conditions of data set [1]: background, in words; cited from earlier work.
The conditions of data set [2]: background, in words; cited from earlier work. This is another data set of the same source.
The target in the next data set is T1, CTR (Homo sapiens, UniProt P30988).
T1 construct: expressed in transfected cells
T1 sequence (P30988 25-474): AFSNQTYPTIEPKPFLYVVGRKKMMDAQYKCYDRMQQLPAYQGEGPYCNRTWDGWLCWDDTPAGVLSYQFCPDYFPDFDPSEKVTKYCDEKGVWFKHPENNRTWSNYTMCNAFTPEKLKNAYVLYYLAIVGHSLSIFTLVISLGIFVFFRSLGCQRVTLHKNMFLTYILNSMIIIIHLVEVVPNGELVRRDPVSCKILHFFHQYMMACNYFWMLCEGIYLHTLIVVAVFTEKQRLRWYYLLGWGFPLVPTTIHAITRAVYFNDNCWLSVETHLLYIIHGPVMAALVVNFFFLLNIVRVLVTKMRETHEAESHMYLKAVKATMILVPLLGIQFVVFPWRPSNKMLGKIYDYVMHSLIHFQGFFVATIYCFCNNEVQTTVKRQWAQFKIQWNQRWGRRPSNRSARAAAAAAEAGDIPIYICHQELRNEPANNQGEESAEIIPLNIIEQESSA
Briefly: HTRF cAMP assay, CTR. It is filed as cell-based. Particulars: HEK293/pGM-CREB-L-Luc/CTR pool, read-out: IC50 of receptor CTR. From the text:
(§1) 2. The polypeptide derivatives prepared in Example 1 and Example 2 of the present disclosure can bind to the target AMYR and CTR receptors on the cell membrane, activate the receptors and release cAMP. Therefore, the activity of the analyte can be determined by using an HTRF (homogeneous time-resolved fluorescence) method and using a cAMP detection kit. The specific steps were as follows:
(§2) A stable transfected cell line of HEK293/pGM-CREB-L-Luc/AMY3R pool and HEK293/pGM-CREB-L-Luc/CTR pool was constructed. The polypeptide derivatives (i.e., AMY-001 to AMY-041) prepared in Examples 1 and 2 were subjected to 5-fold serial dilution from a maximum of 1000 nM to prepare a dilution series containing 8 to 11 concentration gradients. Cagrilintide and sCT were selected as positive controls for testing, and a dilution series was prepared according to the same method for testing. The test cell lines were selected and treated with cAMP-specific trypsin for digestion, and then suspended with 3 mL of serum-free DMEM medium by pipetting, and the cells were counted. 5 μL of IBMX (prepared with serum-free DMEM medium, 0.5 mM) and test cells (5 μL/7500 cells/well) were sequentially added to a 384-well plate, incubated under the conditions of 37° C., 5% CO2 for 30 minutes, then added with cAMP-d2 (5 μL, 1×) and Anti-cAMP-Cryptate (5 μL, 1×) and placed at room temperature for 1 hour. A HTRF value was determined by a chemiluminescence microplate reader, and the results were recorded. An activation curve was plotted using GraphPad Prism software to calculate an IC50 value of each polypeptide derivative. […] The IC50 values of some polypeptides were exemplarily shown in this example, see Table 3, FIG. 2 and FIG. 3 for details.

In a further data set the target is T2, AMY3R (Homo sapiens, UniProt P30988).
T2 construct: expressed in transfected cells
T2 sequence (P30988 25-474): T1 sequence (P30988 25-474)
T2 sequence (O60896 24-148 partner): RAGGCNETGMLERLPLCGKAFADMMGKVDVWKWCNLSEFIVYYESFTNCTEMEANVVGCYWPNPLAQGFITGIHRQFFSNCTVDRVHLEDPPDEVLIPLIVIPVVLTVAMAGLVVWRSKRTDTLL
The experiment in a line: HTRF cAMP assay, AMY3R. Conditions: HEK293/pGM-CREB-L-Luc/AMY3R pool, read-out: IC50 of receptor AMY3R. It is filed as cell-based.
Excerpt: as §1, §2

A short description of data set [3]: Pharmacokinetic evaluation in SD rats. Conditions: plasma, rat. It is filed as in vivo, male SD rat. Here is the method:
1. The pharmacokinetic behaviors of the polypeptide derivatives (i.e., AMY-001 to AMY-041) prepared in Example 1 and Example 2 in SD rats were tested.
Each polypeptide derivative (i.e., AMY-001 to AMY-041) was administered to male SD rat as a single injection via subcutaneous injection (SC, 3 mg/kg, with PBS as a medicament vehicle, a concentration of 1.5 mg/mL, and an administration volume of 2 mL) and intravenous injection (IV, 1 mg/kg, with PBS as a medicament vehicle, a concentration of 0.5 mg/mL, and an administration volume of 2 mL), respectively. After administration, whole blood samples were respectively collected from the jugular vein or other appropriate veins at selected time points. 0.2 mL of blood was collected and placed in a labeled EDTA-K2 anticoagulant tube. The tube was gently inverted up and down to ensure thorough mixing of the anticoagulant (EDTA-K2) with the blood, immediately placed on wet ice and centrifuged as soon as possible to separate plasma, and the centrifugation conditions were set to 4° C., 6800 g, and 6 minutes. Plasma samples were stored in a refrigerator at a temperature not exceeding −20° C. until subsequent analysis.
(§3) Under yellow light conditions in an ice water bath, (1) except for the blank sample, 300 μL of precipitant containing internal standard was added to a 96-well plate containing 20 μL of a standard curve sample, a quality control sample or an unknown sample; 300 μL of acetonitrile was added to the blank sample; (2) vortex mixing; (3) centrifugation; (4) 150 μL of supernatant was taken and added into a new 96-well plate, and then mixed well with 150 μL of ultrapure water; and (5) The above samples were quantitatively analyzed by using LC-MS analysis. Gradient elution was performed on a XB—C18 chromatographic column (2.1*100 mm, 3 μm), with the mobile phase as follows: mobile phase A=0.1% (volume percentage, v/v) formic acid-water; and mobile phase B=acetonitrile. Pharmacokinetic parameters were calculated using Phoenix WinNonlin software.

The nature of data set [4]: Pharmacokinetic evaluation in Cynomolgus macaques. It is filed as in vivo, adult male Cynomolgus macaques. Particulars: cynomolgus monkey, plasma, 0.2 mg/kg. As for the experimental part:
2. The pharmacokinetic behaviors of the polypeptide derivatives (i.e., AMY-001 to AMY-041) prepared in Example 1 and Example 2 in Cynomolgus macaques were tested.
Each polypeptide derivatives (i.e., AMY-001 to AMY-041) was respectively administered to adult male Cynomolgus macaques as a single injection via subcutaneous injection (S.C., 0.2 mg/kg, with PBS as a medicament vehicle, a concentration of 0.2 mg/mL, […], with PBS as a medicament vehicle, a concentration of 0.2 mg/mL, and an administration volume of 1 mL), respectively. After administration, whole blood samples were respectively collected from the jugular vein or other appropriate veins at selected time points. 0.2 mL of blood was collected and placed in a labeled EDTA-K2 anticoagulant tube. The tube was gently inverted up and down to ensure thorough mixing of the anticoagulant (EDTA-K2) with the blood, immediately placed on wet ice and centrifuged as soon as possible to separate plasma, and the centrifugation conditions were set to 4° C., 6800 g, and 6 minutes. Plasma samples were stored in a refrigerator at a temperature not exceeding −20° C. for subsequent analysis.
as §3, with “the” for “The”, “A=0.1%” for “A=0.1% (volume percentage, v/v)”

SMILES strings stand for the structures. Starred links: 1 amine or outer side, 2 acyl side, 3 side chain; linkers in the order of their positions; H or OH if unused. Positions of bridges follow the written chain, without caps; N, C: chain ends. Non-standard residues stand in square brackets, D forms with d. Residues, ends and D or L forms follow the SMILES beside them. X1 = O=C(O)CCCCCCCCCCCCCCCCCCC(=O)N[C@@H](CCCCNC(=O)COCCOCCNC(=O)COCCOCCNC(=O)CCC(=O)N(CCNC(=O)C[*:1])CCNC(=O)C[*:2])C(=O)O; NMeR = CN[C@@H](CCCNC(=N)N)C(=O)O; Hyp = O=C(O)[C@@H]1C[C@@H](O)CN1; αMeK = C[C@](N)(CCCCN)C(=O)O; Aib = CC(C)(N)C(=O)O

Regarding `CC(C)C[C@H](NC(=O)[C@H](CCCCN)NC(=O)CNC(=O)[C@H](CC(C)C)NC(=O)[C@@H](NC(=O)[C@@H]1CSSC[C@H](N)C(=O)N[C@@H](CO)C(=O)N[C@@H](CC(N)=O)C(=O)N[C@@H](CC(C)C)C(=O)N[C@@H](CO)C(=O)N[C@@H]([C@@H](C)O)C(=O)N1)C(C)C)C(=O)N[C@@H](CO)C(=O)N[C@@H](CCC(N)=O)C(=O)N[C@@H](CCC(=O)O)C(=O)N[C@@H](CC(C)C)C(=O)N[C@@H](Cc1c[nH]cn1)C(=O)N[C@@H](CCCCN)C(=O)N[C@@H](CC(C)C)C(=O)N[C@@H](CCC(N)=O)C(=O)N[C@H](C(=O)N[C@@H](Cc1ccc(O)cc1)C(=O)N1CCC[C@H]1C(=O)N[C@@H](CCCNC(=N)N)C(=O)N[C@H](C(=O)N[C@@H](CC(N)=O)C(=O)N[C@H](C(=O)NCC(=O)N[C@@H](CO)C(=O)NCC(=O)N[C@H](C(=O)N1CCC[C@H]1C(N)=O)[C@@H](C)O)[C@@H](C)O)[C@@H](C)O)[C@@H](C)O` [sCT], the stability result in data set [1] was “poor stability”. Also, the in-vivo half-life entry in data set [2] is reported as “short in-vivo half-life”.
With `CC(=O)N[C@@H](C)C(=O)N[C@@H](CO)C(=O)N[C@@H](Cc1c[nH]cn1)C(=O)N[C@@H](CC(C)C)C(=O)N[C@@H](CO)C(=O)N[C@H](C(=O)N[C@@H](C)C(=O)N[C@H]1CSCC(=O)NCCN(C(=O)CCC(=O)NCCOCCOCC(=O)NCCOCCOCC(=O)NCCCC[C@H](NC(=O)CCCCCCCCCCCCCCCCCCC(=O)O)C(=O)O)CCNC(=O)CSC[C@@H](C(=O)N[C@@H](CC(C)C)C(=O)N[C@@H](Cc2c[nH]cn2)C(=O)N[C@@](C)(CCCCN)C(=O)N[C@@H](CC(C)C)C(=O)NC(C)(C)C(=O)N[C@@H](CC(=O)O)C(=O)N[C@@H](Cc2ccc(O)cc2)C(=O)N2CCC[C@H]2C(=O)N(C)[C@@H](CCCNC(=N)N)C(=O)N[C@H](C(=O)N[C@@H](CC(=O)O)C(=O)N[C@H](C(=O)NCC(=O)N[C@@H](C)C(=O)NCC(=O)N[C@@H](CO)C(=O)N2C[C@H](O)C[C@H]2C(N)=O)C(C)C)[C@@H](C)O)NC(=O)[C@H](C)NC(=O)[C@H](CO)NC(=O)[C@H](CC(C)C)NC(=O)[C@H](CCCNC(=N)N)NC(=O)CNC(=O)[C@H](CC(C)C)NC1=O)[C@@H](C)O` [AMY-011, Ac-ASHLSTACLGRLSACLH-(αMeK)-L-Aib-DYP-(N-Me-R)-TDVGAGS-Hyp-NH2] (Ac-ASHLSTACLGRLSACLH[αMeK]L[Aib]DYP[NMeR]TDVGAGS[Hyp]-NH2; linker 8-15 via X1), the EC50 at CTR stood at 12.2 pM. For the same molecule, at AMY3R, the EC50 came to 4.8 pM. Also, in data set [3] (1 mg/kg, IV (1 mpk)), the total exposure AUC(0-inf) was determined as 143 µg·h/mL, the clearance is 7.02 mL/h/kg and the half-life is 15.5 h. In addition, in data set [3] (3 mg/kg, SC (3 mpk)), the total exposure AUC(0-inf) was 283 µg·h/mL, the concentration peaked (Cmax) at 6830 ng/mL, the Tmax is 8 h and the bioavailability is 65.9%. For the same molecule, the half-life in data set [3] (3 mg/kg, SC (3 mpk)) is 15.6 h.
Consider `CC(=O)N[C@@H](C)C(=O)N[C@@H](CO)C(=O)N[C@@H](Cc1c[nH]cn1)C(=O)N[C@@H](CC(C)C)C(=O)N[C@@H](CO)C(=O)N[C@H](C(=O)N[C@@H](C)C(=O)N[C@H]1CSCC(=O)NCCN(C(=O)CCC(=O)NCCOCCOCC(=O)NCCOCCOCC(=O)NCCCC[C@H](NC(=O)CCCCCCCCCCCCCCCCCCC(=O)O)C(=O)O)CCNC(=O)CSC[C@@H](C(=O)N[C@@H](CC(C)C)C(=O)N[C@@H](Cc2c[nH]cn2)C(=O)N[C@@](C)(CCCCN)C(=O)N[C@@H](CC(C)C)C(=O)NC(C)(C)C(=O)N[C@@H](CC(=O)O)C(=O)N[C@@H](Cc2ccc(O)cc2)C(=O)N2CCC[C@H]2C(=O)N[C@@H](CCC(N)=O)C(=O)N[C@H](C(=O)N[C@@H](CC(=O)O)C(=O)N[C@H](C(=O)NCC(=O)N[C@@H](C)C(=O)NCC(=O)N[C@@H](CO)C(=O)N2C[C@H](O)C[C@H]2C(N)=O)C(C)C)[C@@H](C)O)NC(=O)[C@H](C)NC(=O)[C@H](CO)NC(=O)[C@H](CC(C)C)NC(=O)[C@H](CCCNC(=N)N)NC(=O)CNC(=O)[C@H](CC(C)C)NC1=O)[C@@H](C)O` [AMY-015, Ac-ASHLSTACLGRLSACLH-(αMeK)-L-Aib-DYPQTDVGAGS-Hyp-NH2] (Ac-ASHLSTACLGRLSACLH[αMeK]L[Aib]DYPQTDVGAGS[Hyp]-NH2; linker 8-15 via X1), for which, in data set [4] (IV (0.2 mpk)), the area under the curve AUC(0-inf) came to 942 µg·h/mL, the clearance turned out to be 0.217 mL/h/kg and the half-life is 146 h. Moreover, in data set [4] (SC (0.2 mpk)), the AUC(0-inf) is 514 µg·h/mL, the peak level (Cmax) was 2260 ng/mL, the Tmax was 24 h and the bioavailability was 54.5%. The half-life in data set [4] (SC (0.2 mpk)) is 143 h. Further, in data set [3] (1 mg/kg, IV (1 mpk)), the area under the curve AUC(0-inf) is 286 µg·h/mL, the clearance was 3.52 mL/h/kg and the half-life is 20.5 h. For the same molecule, in data set [3] (3 mg/kg, SC (3 mpk)), the AUC(0-inf) was found to be 567 µg·h/mL, the peak level (Cmax) was 11100 ng/mL, the Tmax is 24 h and the bioavailability came to 66.1%. The molecule also gave a half-life in data set [3] (3 mg/kg, SC (3 mpk)) of 20.6 h.

A word on the AUC(0-inf): it is the area under the concentration-time curve extrapolated to infinity. One may read the clearance as a measure of how efficiently the substance is removed, as volume per time. Broadly, the half-life is how long it takes for the measured level to halve. Read a high half-life as slow decline. As usually defined, the Cmax is the highest concentration seen after dosing. As usually defined, the Tmax is the time from dosing to the highest level. A word on the bioavailability: it is the share of a dose that reaches the circulation, judged against a reference dose that is usually intravenous. Higher therefore signals much systemic uptake.
